ChEMBL document CHEMBL1131309, “Isoindol-1-one analogues of 4-(2'-methoxyphenyl)-1-[2'-[N-(2"-pyridyl)-p-iodobenzamido]ethyl]pipera zine (p-MPPI) as 5-HT1A receptor ligands” (J Med Chem, 1998)

Target: T1, 5-hydroxytryptamine receptor 1A (Rattus norvegicus, UniProt P19327)
T1 sequence (P19327 whole entry): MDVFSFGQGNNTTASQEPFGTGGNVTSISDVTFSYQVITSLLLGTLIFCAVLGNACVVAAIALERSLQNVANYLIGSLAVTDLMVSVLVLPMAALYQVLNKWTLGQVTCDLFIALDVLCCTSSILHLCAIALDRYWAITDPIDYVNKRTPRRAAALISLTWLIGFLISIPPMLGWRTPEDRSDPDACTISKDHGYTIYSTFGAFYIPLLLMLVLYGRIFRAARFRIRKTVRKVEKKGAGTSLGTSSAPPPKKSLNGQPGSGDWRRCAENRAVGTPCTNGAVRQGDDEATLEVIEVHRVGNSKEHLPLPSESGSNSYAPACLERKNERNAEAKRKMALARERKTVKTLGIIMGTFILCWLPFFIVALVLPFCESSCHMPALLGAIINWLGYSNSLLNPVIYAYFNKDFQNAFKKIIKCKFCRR
Description: In vitro binding affinity for 5-hydroxytryptamine 1A receptor in rat hippocampal membranes by [125I]-labeled agonist displacement.

Row | Compound | Ki
1 | COc1ccccc1N1CCN(CCN(C(=O)c2ccc(I)cc2)c2ccccn2)CC1 | 200 pM
2 | COc1ccccc1N1CCN(CCN2C(=O)c3cc(I)ccc3C2(O)c2ccccc2)CC1 (stereo unspecified) | 650 pM
3 | COc1ccccc1N1CCN(CCN2C(=O)c3ccccc3C2c2ccccn2)CC1 (stereo unspecified) | 6500 pM
4 | COc1ccccc1N1CCN(CCN2C(=O)CCC2c2ccc(Br)cc2)CC1 (stereo unspecified) | 1090 pM
5 | COc1ccccc1N1CCN(CCN2C(=O)c3ccccc3C2c2ccccc2)CC1 (stereo unspecified) | 500 pM
6 | COc1ccccc1N1CCN(CCN2C(=O)c3cc(N)ccc3C2(O)c2ccccc2)CC1 (stereo unspecified) | 1850 pM
